The assay concerns HIV-1 (NL4-3 strain). The assay can be described thus: microbe, parasite or virus in culture. The assay is classed as cell-based. To be noted: MT4-GFP cells infected with HIV-1 NL4-3, IP or IC50 from 4-parameter dose response curve.
Where [1] appears, read: Human immunodeficiency virus 1, NL43, 0% normal human serum (NHS), read-out: WILD TYPE CELL ASSAY Viking IP (0% NHS).
Setting [2] is: Human immunodeficiency virus 1, NL43, 100% normal human serum (NHS), read-out: WILD TYPE CELL ASSAY Viking IP (100% NHS).

Read-outs that look alike come from different tables or passages of the source. Bounds are passed on as bounds.

For the molecule `C[C@]12CCCO[C@@H]1Cn1cc(C(=O)NCc3ccc(F)cc3F)c(=O)c(O)c1C2=O` (racemic) [Compound 9], the IC50 was 2.6 nM under setting [1] and 235 nM under setting [2].

For `CC1(O)CCn2cc(C(=O)NCc3ccc(F)cc3F)c(=O)c(O)c2C1=O` (racemic) [Compound 53], the IC50 is 64 nM under setting [1] and more than 8400 nM under setting [2].

With `C[C@@]12CCCO[C@@H]1Cn1cc(C(=O)NCc3c(F)cc(F)cc3F)c(=O)c(O)c1C2=O` (single isomer, unassigned) [Compound 14], the IC50 is, setting by setting: under setting [1], 0.7 nM; under setting [2], 26 nM.

For `C[C@@]12CCCO[C@@H]1Cn1cc(C(=O)NCc3cccc(Cl)c3F)c(=O)c(O)c1C2=O` (single isomer, unassigned) [Compound 15], the IC50 stood at 0.5 nM under setting [1] and 73 nM under setting [2].

Take `C[C@@]12CCCO[C@@H]1Cn1cc(C(=O)NCc3ccc(F)c(Cl)c3)c(=O)c(O)c1C2=O` (single isomer, unassigned) [Compound 16]: the IC50 by setting is: under setting [1], 4.1 nM; under setting [2], 257 nM.

In the case of `C[C@@]12CCCO[C@@H]1Cn1cc(C(=O)NCc3ccc(F)c(F)c3F)c(=O)c(O)c1C2=O` (single isomer, unassigned) [Compound 17], the IC50 under setting [1] stood at 2.9 nM and the IC50 under setting [2] stood at 117 nM.

As to `C[C@@]12CCCO[C@@H]1Cn1cc(C(=O)NCc3ccc(F)cc3)c(=O)c(O)c1C2=O` (single isomer, unassigned) [Compound 18], the IC50 is, setting by setting: under setting [1], 8.7 nM; under setting [2], 315 nM.

Consider `C[C@]12CCCO[C@H]1Cn1cc(C(=O)NCc3ccc(F)cc3)c(=O)c(O)c1C2=O` (single isomer, unassigned) [Compound 19], for which the IC50 is, setting by setting: under setting [1], 4.6 nM; under setting [2], 709 nM.

With `C[C@]12CCCO[C@H]1Cn1cc(C(=O)NCc3ccc(F)c(F)c3F)c(=O)c(O)c1C2=O` (single isomer, unassigned) [Compound 20], the IC50 is 3.5 nM under setting [1] and 839 nM under setting [2].

For the molecule `C[C@]12CCCO[C@H]1Cn1cc(C(=O)NCc3ccccc3F)c(=O)c(O)c1C2=O` (single isomer, unassigned) [Compound 21], the IC50 is, setting by setting: under setting [1], 2.4 nM; under setting [2], 385 nM.

In the case of `C[C@]12CCCO[C@H]1Cn1cc(C(=O)NCc3c(F)cccc3F)c(=O)c(O)c1C2=O` (single isomer, unassigned) [Compound 22], the IC50 is, setting by setting: under setting [1], 2.7 nM; under setting [2], 251 nM.

For the molecule `C[C@]12CCCO[C@H]1Cn1cc(C(=O)NCc3c(F)cc(F)cc3F)c(=O)c(O)c1C2=O` (single isomer, unassigned) [Compound 23], the IC50 was 1.5 nM under setting [1] and 1260 nM under setting [2].

For `Cc1cc(CNC(=O)c2cn3c(c(O)c2=O)C(=O)[C@@]2(C)CCCO[C@H]2C3)ccc1F` (single isomer, unassigned) [Compound 24], the IC50 under setting [1] is 4.3 nM and the IC50 under setting [2] was more than 8400 nM.

With `C[C@]12CCCO[C@H]1Cn1cc(C(=O)NCc3ccc(F)c(Br)c3)c(=O)c(O)c1C2=O` (single isomer, unassigned) [Compound 25], the IC50 is, setting by setting: under setting [1], 4.2 nM; under setting [2], more than 8400 nM.

`C[C@]12CCCO[C@H]1Cn1cc(C(=O)NCc3cccc(Cl)c3F)c(=O)c(O)c1C2=O` (single isomer, unassigned) [Compound 26]: the IC50 under setting [1] was determined as 1.1 nM and the IC50 under setting [2] came out at 2550 nM.

As to `Cc1c(F)ccc(CNC(=O)c2cn3c(c(O)c2=O)C(=O)[C@@]2(C)CCCO[C@H]2C3)c1F` (single isomer, unassigned) [Compound 27], the IC50 is, setting by setting: under setting [1], 2 nM; under setting [2], more than 8400 nM.

Turning to `C[C@]12CCCO[C@H]1Cn1cc(C(=O)NCc3cc(F)c(F)c(F)c3)c(=O)c(O)c1C2=O` (single isomer, unassigned) [Compound 28], the IC50 reads like this: under setting [1], 4.4 nM; under setting [2], more than 8400 nM.

Regarding `C[C@]12CCCO[C@H]1Cn1cc(C(=O)NCc3ccc4c(c3)OCO4)c(=O)c(O)c1C2=O` (single isomer, unassigned) [Compound 29], the IC50 is 17 nM under setting [1] and more than 8400 nM under setting [2].

(Values after patent US10201533B2, “Substituted quinolizine derivatives useful as HIV integrase inhibitors” (priority 2013, dated 2019).)
